From ChEMBL document CHEMBL4665834 (J Med Chem, 2020)

Experiments:
[1] = target: Cytochrome P450 3A4 (Homo sapiens, UniProt P08684); assay: Inhibition of CYP3A4 in human liver microsomes using midazolam as substrate incubated for 10 mins in presence of NADPH generating system by LC-MS/MS analysis
[2] = Lipophilicity, log D of compound at pH 7.5 by HPLC analysis; conditions: buffer
[3] = organism: Homo sapiens; assay: Selectivity ratio of IC50 for displacement of [3H]PGD2 from full-length recombinant human IP receptor expressed in HEK293 cell membranes to IC50 for displacement of [3H]PGF2alpha from full-length recombinant human FP receptor expressed in HEK293 cell membranes
[4] = organism: Homo sapiens; assay: Selectivity ratio of IC50 for displacement of [3H]PGD2 from full-length recombinant human DP1 receptor expressed in Chem-1 cell membranes to IC50 for displacement of [3H]PGF2alpha from full-length recombinant human FP receptor expressed in HEK293 cell membranes
[5] = organism: Homo sapiens; assay: Selectivity ratio of IC50 for displacement of [3H]prostaglandin E2 from full-length recombinant human EP4 receptor expressed in Chem-1 cell membranes to IC50 for displacement of [3H]PGF2alpha from full-length recombinant human FP receptor expressed in HEK293 cell membranes
[6] = organism: Homo sapiens; assay: Selectivity ratio of IC50 for displacement of [3H]prostaglandin E2 from full-length recombinant human EP3 receptor expressed in HEK293 cell membranes to IC50 for displacement of [3H]PGF2alpha from full-length recombinant human FP receptor expressed in HEK293 cell membranes
[7] = organism: Homo sapiens; assay: Selectivity ratio of IC50 for displacement of [3H]prostaglandin E2 from full-length recombinant human EP2 receptor expressed in HEK293 cell membranes to IC50 for displacement of [3H]PGF2alpha from full-length recombinant human FP receptor expressed in HEK293 cell membranes
[8] = organism: Homo sapiens; assay: Selectivity ratio of IC50 for displacement of [3H]prostaglandin E2 from full-length recombinant human EP1 receptor expressed in HEK293 cell membranes to IC50 for displacement of [3H]PGF2alpha from full-length recombinant human FP receptor expressed in HEK293 cell membranes
[9] = Maximum oral bioavailability in rat hepatocytes based well stirred liver model at 1 uM measured after 2 to 90 mins by LC-MS/MS analysis; type: ADME, Hepatocyte; conditions: time 2-90 min, read-out: Fmax
[10] = target: Prostaglandin F2-alpha receptor (Homo sapiens, UniProt P43088); assay: Antagonist activity at human FPR expressed in human Chem-1 cells assessed as inhibition of PGF2alpha-induced calcium flux preincubated for 10 mins followed by PGF2alpha stimulation and measured for 120 secs by fluo-8 AM dye based fluorescence assay; type: functional, cell-based
Chain of Prostaglandin F2-alpha receptor (P43088 whole entry, the tested form may be a part): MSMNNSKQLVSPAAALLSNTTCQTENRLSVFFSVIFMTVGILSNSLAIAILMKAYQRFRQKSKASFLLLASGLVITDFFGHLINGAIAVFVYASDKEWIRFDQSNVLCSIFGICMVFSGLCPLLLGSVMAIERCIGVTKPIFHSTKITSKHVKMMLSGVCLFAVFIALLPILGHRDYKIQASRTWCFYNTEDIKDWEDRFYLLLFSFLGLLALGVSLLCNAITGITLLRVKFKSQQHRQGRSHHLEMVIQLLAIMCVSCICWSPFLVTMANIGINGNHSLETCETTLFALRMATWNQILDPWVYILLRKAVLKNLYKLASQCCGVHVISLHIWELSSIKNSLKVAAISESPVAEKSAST

[11] = Clearance in Wistar rat at 0.3 to 1 mg/kg, iv administered as bolus dose or 15 mins infusion by LC-MS/MS analysis; type: ADME, organism-based; conditions: in vivo, dose 0.3-1 mg/kg; for clearance: Wistar
[12] = Efflux ratio of apparent permeability across basolateral to apical side over apical to basolateral side in human Caco-2 cells measured after 2 hrs by HPLC analysis; type: ADME, cell-based
[13] = Apparent permeability in human Caco-2 cells measured after 2 hrs by HPLC analysis; type: ADME, cell-based
[14] = Half life in Wistar rat at 0.3 to 1 mg/kg, iv administered as bolus dose by LC-MS/MS analysis; type: ADME, organism-based; conditions: in vivo, dose 0.3-1 mg/kg
[15] = Oral bioavailability in Wistar rat at 1 to 3 mg/kg administered via gavage using EtOH/PEG400/H2O 10/40/50 formulation by LC-MS/MS analysis; type: ADME, organism-based; conditions: in vivo, dose 1-3 mg/kg

Chain of Cytochrome P450 3A4 (P08684 whole entry): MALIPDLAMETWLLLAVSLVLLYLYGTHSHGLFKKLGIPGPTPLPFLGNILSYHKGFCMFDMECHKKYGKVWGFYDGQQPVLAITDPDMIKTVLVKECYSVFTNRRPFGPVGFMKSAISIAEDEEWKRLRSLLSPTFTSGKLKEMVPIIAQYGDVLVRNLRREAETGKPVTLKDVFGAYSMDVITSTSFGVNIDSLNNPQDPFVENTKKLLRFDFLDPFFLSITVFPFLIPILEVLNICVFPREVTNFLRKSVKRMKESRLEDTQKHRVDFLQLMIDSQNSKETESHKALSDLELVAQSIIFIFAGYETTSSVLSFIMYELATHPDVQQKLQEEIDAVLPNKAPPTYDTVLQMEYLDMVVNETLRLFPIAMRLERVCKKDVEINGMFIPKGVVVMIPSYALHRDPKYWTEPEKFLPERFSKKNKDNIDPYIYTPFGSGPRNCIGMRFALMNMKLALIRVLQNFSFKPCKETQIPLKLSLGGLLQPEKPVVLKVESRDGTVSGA

| SMILES | IC50 [1] [µM] | logD [2] | Ratio IC50 [3] | Ratio IC50 [4] | Ratio IC50 [5] | Ratio IC50 [6] | Ratio IC50 [7] | Ratio IC50 [8] | Fh at 1 µM [9] [%] | IC50 [10] [µM] | clearance [11] [mL/min/kg] | efflux ratio at 2 h [12] | Papp at 2 h [13] [×10⁻⁶ cm/s] | CL ([11]; 0.25 h) [mL/min/kg] | half-life [14] [h] | bioavailability [15] [%] |
| --- | --- | --- | --- | --- | --- | --- | --- | --- | --- | --- | --- | --- | --- | --- | --- | --- |
| Cc1c(C(=O)Nc2ccc(C(=O)O)cc2F)c2cc(Br)ccc2[n+]([O-])c1-c1ccccc1 | > 20 | 1.4 | > 91 | > 91 | 53 | > 91 | > 91 | > 91 | – | – | – | – | – | – | – | – |
| O=C(O)c1ccc(NC(=O)c2c(Cl)c(-c3ccccc3)nc3ccc(Br)cc23)c(F)c1 | – | 2.1 | > 38 | > 38 | 14 | > 38 | > 38 | > 38 | – | – | – | – | – | – | – | – |
| Cc1c(-c2ccccc2)nc2ccc(Br)cc2c1C(=O)NCCc1cccnc1 | – | 2.6 | – | – | > 7.7 | – | – | – | 4 | 3.4 | – | – | – | – | – | – |
| Cc1c(-c2ccccc2)nc2ccc(I)cc2c1C(=O)Nc1ccc(C(=O)O)cc1F | > 20 | 2 | > 86 | > 86 | 15 | > 86 | > 86 | > 86 | – | – | 21.7 | – | – | – | – | – |
| Cc1c(-c2ccccc2)nc2ccc(C(C)(C)C)cc2c1C(=O)Nc1ccc(C(=O)O)cc1F | > 20 | 2.1 | > 87 | > 87 | 170 | > 87 | > 87 | > 87 | – | – | 20 | – | – | – | – | – |
| Cc1c(-c2ccccc2)nc2ccc(Br)cc2c1CNc1ccc(C(=O)O)cc1F | – | – | – | – | – | – | – | – | – | 0.025 | 11.7 | – | – | – | – | – |
| Cc1c(C(=O)Nc2ccc(C(=O)O)cc2F)c2cc(Br)ccc2c(=O)n1-c1ccccc1 | > 20 | 1.6 | > 1600 | > 1600 | 170 | > 1600 | > 1600 | > 1600 | – | 0.04 | 100 | 7.4 | 3.9 | – | – | – |
| Cc1c(-c2ccccc2)nc2ccc(Br)cc2c1C(=O)Nc1ccc(C(=O)O)cc1 | > 20 | 1.9 | > 110 | > 110 | 10 | > 110 | > 110 | > 110 | – | 0.15 | 23.3 | – | – | – | – | – |
| Cc1c(-c2ccccc2)nc2ccc(Br)cc2c1C(=O)NCCc1ccccn1 | – | – | – | – | – | – | – | – | 7 | 0.2 | – | – | – | – | – | – |
| Cc1c(-c2ccccc2)nc2ccc(C(F)(F)F)cc2c1C(=O)Nc1ccc(C(=O)O)cc1F | > 20 | 2.1 | > 64 | > 64 | 13 | > 64 | > 64 | > 64 | – | – | 40 | – | – | – | – | – |
| Cc1c(-c2ccccc2)cc2ccc(Br)cc2c1C(=O)Nc1ccc(C(=O)O)cc1F | – | – | – | – | – | – | – | – | – | 0.013 | 10 | – | – | – | – | – |
| Cc1c(-c2ccccc2)nc2ccc(Br)cc2c1COc1ccc(C(=O)O)cc1F | > 20 | 2.2 | – | – | 20 | – | – | – | – | 0.25 | 20 | – | – | – | – | – |
| Cc1c(-c2ccccc2)nc2ccc(Br)cc2c1C(=O)Nc1ccc(C(=O)O)cc1F | – | – | > 76 | > 76 | 16 | > 76 | > 76 | > 76 | – | – | – | – | – | – | – | – |
| Cc1c(-c2ccccc2)nc2ccc(Br)cc2c1C(=O)NCC(C)c1ccccn1 (racemic) | – | 3.1 | – | – | – | – | – | – | 24 | 0.19 | – | – | – | – | – | – |
| COc1ccc(C(CNC(=O)c2c(C)c(-c3ccccc3)nc3ccc(Br)cc23)CC(=O)O)cc1 (racemic) | > 20 | 1.9 | – | – | > 63 | – | – | – | – | 1.1 | – | – | – | – | – | – |
| CCC1CCCN(c2nc3ccc(Br)cc3c(C(=O)NCC(CCC(=O)O)c3ccccc3Cl)c2C)C1 (single isomer, unassigned; 52) [listing 1 of 2 here] | 5 | 3.3 | – | – | – | – | – | – | – | 0.00053 | – | – | – | 48.3 | – | – |
| CCC1CCCN(c2nc3ccc(Br)cc3c(C(=O)NCC(CCC(=O)O)c3ccccc3Cl)c2C)C1 (single isomer, unassigned; 52) [listing 2 of 2 here] | – | – | > 180 | > 180 | > 180 | > 180 | > 180 | > 180 | – | – | – | – | – | – | – | – |
| CCC1CCCN(c2nc3ccc(Br)cc3c(C(=O)NCC(CCC(=O)O)c3ccccc3Cl)c2C)C1 (single isomer, unassigned; 53) | – | – | > 580 | > 580 | > 580 | > 580 | > 580 | > 580 | – | – | – | – | – | – | – | – |
| CCC1CCCN(c2nc3ccc(Br)cc3c(C(=O)NCC(CCC(=O)O)c3ccccc3Cl)c2C)C1 (single isomer, unassigned; 54) | – | – | > 180 | > 180 | > 180 | > 180 | > 180 | > 180 | – | – | – | – | – | – | – | – |
| CCC1CCCN(c2nc3ccc(Br)cc3c(C(=O)NCC(CCC(=O)O)c3ccccc3Cl)c2C)C1 (single isomer, unassigned; 55) | – | – | > 300 | > 300 | > 300 | > 300 | > 300 | > 300 | – | – | – | – | – | – | – | – |
| Cc1c(-c2ccccc2)nc2ccc(Br)cc2c1C(=O)NCC(CCC(=O)O)c1ccccc1Cl (single isomer, unassigned; (+)) [listing 1 of 2 here] | > 20 | 2.2 | – | – | – | – | – | – | – | 0.009 | 30 | – | – | – | 5.5 | 75 |
| Cc1c(-c2ccccc2)nc2ccc(Br)cc2c1C(=O)NCC(CCC(=O)O)c1ccccc1Cl (single isomer, unassigned; (+)) [listing 2 of 2 here] | – | – | > 6300 | > 6300 | > 6300 | > 6300 | > 6300 | > 6300 | – | – | – | – | – | – | – | – |
| Cc1c(-c2ccccc2)nc2ccc(Br)cc2c1C(=O)NCC(CCC(=O)O)c1ccccc1Cl (single isomer, unassigned; (-)) | – | – | > 8200 | > 8200 | > 8200 | > 8200 | > 8200 | > 8200 | – | – | – | – | – | – | – | – |
| Cc1c(-c2ccccc2)nc2ccc(Br)cc2c1C(=O)NCC(CCCC(=O)O)c1ccccc1Cl (stereo in doubt; 44) | 13 | – | – | – | – | – | – | – | – | – | 33.3 | – | 40.1 | – | – | – |
